Results published in patent US20250228239A1, “MOLECULES HAVING PESTICIDAL UTILITY, AND INTERMEDIATES, COMPOSITIONS, AND PROCESSES, RELATED THERETO” (priority 2024, published 2025).
Like-named read-outs stand apart in the source and are kept apart here.

Experiments:
Type in all cases: in vivo
[1] = tested on: Yellow Fever Mosquito (Aedes aegypti, AEDSAE); conditions: for YFM rating: Yellow Fever Mosquito, Table ABC / ABC-DP rating; for YFM % Control (or Mortality) rating: about 1 day-old larvae, 4000 ppm master solution diluted with 90:10 water/acetone, 15 μL per well plus 220 μL larval mixture, 3 days; for YFM: Table ABC: Biological Results, species YFM
Summary of the method: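 Compounds from DMSO master plates (4000 ppm stock) diluted in 90:10 water/acetone, then dispensed into six replicate plates and infested with ~1-day-old Aedes aegypti larvae in liver-powder water. Held covered at room temperature for 3 days; each well scored for larval mortality and graded on a rating scale.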

[2] = tested on: Beet Armyworm (Spodoptera exigua, LAPHEG); test: Bioassays on Beet Armyworm (BAW), 128-well diet tray assay; conditions: Spodoptera exigua; for mortality at 50 µg/cm2: 168 h, second instar larvae, 50 μg/cm^2 of test molecule on artificial diet, 25° C., five to seven days, average of eight wells, read-out: BAW % Control (or Mortality) rating
Summary of the method: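 Test molecule was dissolved in 90:10 acetone-water and applied at 50 μg/cm^2 onto artificial diet in eight wells, then dried. Second instar larvae, one to five per well, were added, and trays were kept vented at 25° C. with a 14:10 photoperiod for five to seven days before mortality was recorded.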

[3] = tested on: Cabbage Looper (Trichoplusia ni, TRIPNI); test: Bioassays on Cabbage Looper (CL), 128-well diet tray assay; conditions: Trichoplusia ni; for mortality at 50 µg/cm2: 168 h, second instar larvae, 50 μg/cm^2 of test molecule on artificial diet, 25° C., five to seven days, average of eight wells, read-out: CL % Control (or Mortality) rating
Summary of the method: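 Activity is mean percent mortality over eight wells of second-instar larvae exposed to diet treated at 50 μg/cm^2 for 5–7 days at 25° C.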

[4] = Beet Armyworm, Table ABC / ABC-DP rating, read-out: BAW rating
[5] = Cabbage Looper, Table ABC / ABC-DP rating, read-out: CL rating
[6] = Table ABC: Biological Results, species BAW, read-out: BAW
[7] = Table ABC: Biological Results, species CL, read-out: CL

Compound | YFM rating [1] | YFM % Control (or Mortality) rating [1] | mortality at 50 µg/cm2 [2] [%] | pest or weed control at 50 µg/cm2 [2, 4] [%] | mortality at 50 µg/cm2 [3] [%] | pest or weed control at 50 µg/cm2 [3, 5] [%] | YFM [1] | pest or weed control at 50 µg/cm2 [2, 6] [%] | pest or weed control at 50 µg/cm2 [3, 7] [%]
O=C(NN=Cc1cc(F)ccc1F)c1cc(NC(=O)[C@H]2[C@H](c3cc(Cl)cc(Cl)c3)C2(Cl)Cl)ccc1Cl (relative stereo) [F3003, trans-2,2-Dichloro-N-(4-chloro-3-(2-(2,5-difluorobenzylidene)hydrazine-1-carbonyl)phenyl)-3-(3,5-dichlorophenyl)cyclopropane-1-carboxamide] | A (80–100) | A (80–100) | 50 to 100 | 50 to 100 | 50 to 100 | 50 to 100 |  |  | 
O=C(NN=Cc1ccc(F)cc1F)c1cc(NC(=O)[C@H]2[C@H](c3cc(Cl)cc(Cl)c3)C2(Cl)Cl)ccc1Cl (relative stereo) [F3004, trans-2,2-Dichloro-N-(4-chloro-3-(2-(2,4-difluorobenzylidene)hydrazine-1-carbonyl)phenyl)-3-(3,5-dichlorophenyl)cyclopropane-1-carboxamide] | A (80–100) | A (80–100) | 50 to 100 | 50 to 100 | 50 to 100 | 50 to 100 |  |  | 
CC(=NNC(=O)c1cc(NC(=O)[C@H]2[C@H](c3cc(Cl)cc(Cl)c3)C2(Cl)Cl)ccc1Cl)c1ccccc1 (relative stereo) [F3005, trans-2,2-Dichloro-N-(4-chloro-3-(2-(1-phenylethylidene)hydrazine-1-carbonyl)phenyl)-3-(3,5-dichlorophenyl)cyclopropane-1-carboxamide] | A (80–100) | A (80–100) | 50 to 100 | 50 to 100 | 50 to 100 | 50 to 100 |  |  | 
O=C(NN=CCC(F)(F)F)c1cc(NC(=O)[C@H]2[C@H](c3cc(Cl)cc(Cl)c3)C2(Cl)Cl)ccc1Cl (relative stereo) [F3008, trans-2,2-Dichloro-N-(4-chloro-3-(2-(3,3,3-trifluoropropylidene)hydrazine-1-carbonyl)phenyl)-3-(3,5-dichlorophenyl)cyclopropane-1-carboxamide] | A (80–100) | A (80–100) | 50 to 100 | 50 to 100 | 50 to 100 | 50 to 100 |  |  | 
CN(N=CCC(F)(F)F)C(=O)c1cc(NC(=O)[C@H]2[C@H](c3cc(Cl)cc(Cl)c3)C2(Cl)Cl)ccc1Cl (relative stereo) [F3009, trans-2,2-dichloro-N-(4-chloro-3-(1-methyl-2-(3,3,3-trifluoropropylidene)hydrazine-1-carbonyl)phenyl)-3-(3,5-dichlorophenyl)cyclopropane-1-carboxamide] | A (80–100) | A (80–100) | 50 to 100 | 50 to 100 | 50 to 100 | 50 to 100 |  |  | 
CC(C)=NNC(=O)c1cc(NC(=O)[C@H]2[C@H](c3cc(Cl)cc(Cl)c3)C2(Cl)Cl)ccc1Cl (relative stereo) [F3010, trans-2,2-Dichloro-N-(4-chloro-3-(2-(propan-2-ylidene)hydrazine-1-carbonyl)phenyl)-3-(3,5-dichlorophenyl)cyclopropane-1-carboxamide] | A (80–100) | A (80–100) | 50 to 100 | 50 to 100 | 50 to 100 | 50 to 100 |  |  | 
Nc1c(F)ccc(NC(=O)c2cc(NC(=O)[C@H]3[C@H](c4ccc(Cl)c(Cl)c4)C3(Cl)Cl)ccc2Cl)c1F [DP2, N-(3-Amino-2,4-difluorophenyl)-2-chloro-5-((1R,3R)-2,2-dichloro-3-(3,4-dichlorophenyl)cyclopropane-1-carboxamido)benzamide] | A (80–100) | A (80–100) | 50 to 100 | 50 to 100 | 50 to 100 | 50 to 100 |  |  | 
Nc1cc(NC(=O)c2cc(NC(=O)[C@H]3[C@H](c4ccc(Cl)c(Cl)c4)C3(Cl)Cl)ccc2Cl)c(F)cc1F [DP5, N-(5-Amino-2,4-difluorophenyl)-2-chloro-5-((1R,3R)-2,2-dichloro-3-(3,4-dichlorophenyl)cyclopropane-1-carboxamido)benzamide] | A (80–100) | A (80–100) | 50 to 100 | 50 to 100 | 50 to 100 | 50 to 100 |  |  | 
CC(C)(C)OC(=O)N(C(=O)OC(C)(C)C)c1c(F)ccc(NC(=O)c2cc(NC(=O)[C@H]3[C@H](c4ccc(Cl)c(Cl)c4)C3(Cl)Cl)ccc2Cl)c1F [DP7, tert-Butyl-N-((tert-butoxy)carbonyl)-N-(3-(2-chloro-5-((1R,3R)-2,2-dichloro-3-(3,4-dichlorophenyl)cyclopropane-1-carboxamido)benzamido)-2,6-difluorophenyl)carbamate] |  | D (No activity noticed in this bioassay) | 50 to 100 | 50 to 100 | 0 to 50 | 0 to 50 |  |  | 
Nc1c(F)ccc(NC(=O)c2cc(NC(=O)[C@H]3[C@H](c4ccc(F)c(C(F)(F)F)c4)C3(Cl)Cl)ccc2Cl)c1F [DP9, N-(3-amino-2,4-difluorophenyl)-2-chloro-5-((1R,3R)-2,2-dichloro-3-(4-fluoro-3-(trifluoromethyl)phenyl)cyclopropane-1-carboxamido)benzamide] | A (80–100) | A (80–100) | 50 to 100 | 50 to 100 | 50 to 100 | 50 to 100 |  |  | 
CC(C)(C)OC(=O)N(C(=O)OC(C)(C)C)c1cc(NC(=O)c2cc(NC(=O)[C@H]3[C@H](c4ccc(Cl)c(Cl)c4)C3(Cl)Cl)ccc2Cl)c(F)cc1F [DP12, tert-Butyl-N-((tert-butoxy)carbonyl)-N-(5-(2-chloro-5-((1R,3R)-2,2-dichloro-3-(3,4-dichlorophenyl)cyclopropane-1-carboxamido)benzamido)-2,4-difluorophenyl)carbamate] |  | D (No activity noticed in this bioassay) | 50 to 100 | 50 to 100 | 50 to 100 | 50 to 100 |  |  | 
O=C(Nc1ccc(F)cc1F)c1cc(NC(=O)C2C(c3cc(Br)cc(S(F)(F)(F)(F)F)c3)C2(Cl)Cl)ccc1Cl (stereo not drawn) [F1032, cis-5-(3-(3-Bromo-5-(pentafluoro-λ^6-sulfanyl)phenyl)-2,2-dichiorocyclopropane-1-carboxamido)-2-chloro-N-(2,4-difluorophenyl)benzamide] |  |  |  |  |  |  | A (80–100) | 50 to 100 | 50 to 100
CC(C)(C)OC(=O)Nc1c(F)ccc(NC(=O)c2cc(NC(=O)[C@H]3[C@H](c4ccc(F)c(C(F)(F)F)c4)C3(Cl)Cl)ccc2Cl)c1F [F1053, tert-Butyl-(3-(2-chloro-5-((1R,3R)-2,2-dichloro-3-(4-fluoro-3-(trifluoromethyl)phenyl)cyclopropane-1-carboxamido)benzamido)-2,6-difluorophenyl)carbamate] |  |  |  |  |  |  | A (80–100) | 50 to 100 | 50 to 100
O=C(Nc1ccc(F)c(NC(=O)C(F)(F)F)c1F)c1cc(NC(=O)[C@H]2[C@H](c3ccc(Cl)c(Cl)c3)C2(Cl)Cl)ccc1Cl [F1064, 2-Chloro-5-((1R,3R)-2,2-dichloro-3-(3,4-dichlorophenyl)cyclopropane-1-carboxamido)-N-(2,4-difluoro-3-(2,2,2-trifluoroacetamido)phenyl)benzamide] |  |  |  |  |  |  | A (80–100) | 50 to 100 | 50 to 100
O=C(Nc1ccc(F)c(NC(=O)C(F)F)c1F)c1cc(NC(=O)[C@H]2[C@H](c3ccc(Cl)c(Cl)c3)C2(Cl)Cl)ccc1Cl [F1065, 2-Chloro-5-((1R,3R)-2,2-dichloro-3-(3,4-dichlorophenyl)cyclopropane-1-carboxamido)-N-(3-(2,2-difluoroacetamido)-2,4-difluorophenyl)benzamide] |  |  |  |  |  |  | A (80–100) | 50 to 100 | 50 to 100
CC(C)(C)OC(=O)Nc1c(F)ccc(NC(=O)c2cc(NC(=O)[C@@H]3[C@@H](c4ccc(F)c(C(F)(F)F)c4)C3(Cl)Cl)ccc2Cl)c1F [F1074, tert-Butyl-(3-(2-chloro-5-((1S,3S)-2,2-dichloro-3-(4-fluoro-3-(trifluoromethyl)phenyl)cyclopropane-1-carboxamido)benzamido)-2,6-difluorophenyl)carbamate] |  |  |  |  |  |  | A (80–100) | 50 to 100 | 50 to 100
